# Reference: PubChem BioAssay (NCI)
# Where “and” joins values, the source holds several entries; their conditions need not be identical. Equal entries are not always repeated.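 Where inhibition never reached the appropriate level, the endpoint shown equals the highest concentration tested. Otherwise, values were interpolated linearly from a five-concentration, 48-hour dose response in 96-well plates. At the GI50, growth is halved. TGI is the concentration that stops growth completely.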
# Columns and labels:
# Test in all cases: NCI-60 cell line screen, 48 h
# 786-0 renal = test system: 786-0 renal
# COLO 205 colon = test system: COLO 205 colon
# HCC-2998 colon = test system: HCC-2998 colon
# HCT-116 colon = test system: HCT-116 colon
# MDA-MB-435 = test system: MDA-MB-435
# NCI-H23 lung = test system: NCI-H23 lung
# NCI-H522 lung = test system: NCI-H522 lung
# PC-3 prostate = test system: PC-3 prostate
# SF-268 CNS = test system: SF-268 CNS
# SK-MEL-2 melanoma = test system: SK-MEL-2 melanoma
Structure (SMILES),GI50 (786-0 renal),TGI (786-0 renal),GI50 (COLO 205 colon),TGI (COLO 205 colon),GI50 (HCC-2998 colon),TGI (HCC-2998 colon),GI50 (HCT-116 colon),TGI (HCT-116 colon),GI50 (MDA-MB-435),TGI (MDA-MB-435),GI50 (NCI-H23 lung),TGI (NCI-H23 lung),GI50 (NCI-H522 lung),TGI (NCI-H522 lung),GI50 (PC-3 prostate),TGI (PC-3 prostate),GI50 (SF-268 CNS),TGI (SF-268 CNS),GI50 (SK-MEL-2 melanoma),TGI (SK-MEL-2 melanoma)
CC(=O)O[C@H]1[C@@H]2OC(=O)C(CSc3ccccc3)[C@@H]2C[C@H]2O[C@]2(C)CC/C=C(\C)CCC[C@@H]1C (stereo partly specified),2.81 µM,8.29 µM,1.75 µM,3.9 µM,4.7 µM,16.3 µM,1.46 µM,2.91 µM,2.12 µM,5.9 µM,3.51 µM,22.2 µM,1.74 µM,3.68 µM,2.53 µM,11.1 µM,3.51 µM,13.3 µM,3.11 µM,8.69 µM
CN(CC(=O)Nc1nc2ccccc2[nH]1)S(=O)(=O)c1ccc(Cl)cc1,> 100 µM,> 100 µM,> 100 µM,> 100 µM,> 100 µM,> 100 µM,> 100 µM,> 100 µM,> 100 µM,> 100 µM,> 100 µM,> 100 µM,> 100 µM,> 100 µM,–,–,43.2 µM,> 100 µM,2.92 µM,> 100 µM
COC(=O)C12OCC34C(CC5C(C)C6=CC(=O)OC6=CC5(C)C3C(O)C1O)OC(=O)C(O)C24 (stereo unspecified),0.31 µM,5.66 µM,0.252 µM,–,0.075 µM,0.347 µM and 0.676 µM,0.224 µM,6.31 µM,–,–,0.156 µM,0.493 µM and 1.16 µM,0.0501 µM,–,–,–,0.287 µM,3.34 µM,0.313 µM,0.944 µM and 2.43 µM
CO/N=C(\COc1ccc2oc(-c3ccccc3)cc(=O)c2c1)c1ccc(OC)cc1,21.9 µM,48.9 µM,30.8 µM,> 100 µM,21.4 µM,48.6 µM,16.9 µM,33.8 µM,15 µM,36.9 µM,32.4 µM,> 100 µM,17.8 µM,37.4 µM,29.9 µM,98.5 µM,–,–,31 µM,> 100 µM
O=NNc1ccc(Sc2ccc(NN=O)cn2)nc1,–,> 100 µM,–,> 100 µM,–,> 100 µM,–,> 100 µM,–,–,–,> 100 µM,–,> 100 µM,–,> 100 µM,–,> 100 µM,–,–
CC(C)(C)c1ccc(OCCOCCOc2ccc(C(C)(C)C)cc2S(=O)(=O)Nc2ccc([N+](=O)[O-])cc2)c(S(=O)(=O)Nc2ccc([N+](=O)[O-])cc2)c1,–,> 100 µM,–,> 100 µM,–,> 100 µM,–,> 100 µM,–,–,–,> 100 µM,–,–,–,–,–,> 100 µM,–,> 100 µM
O=C(CCn1[nH]c(=O)c(Cl)c(Cl)c1=O)NNC(=O)C[n+]1ccccc1,–,> 100 µM,–,> 100 µM,–,> 100 µM,–,–,–,–,–,> 100 µM,–,> 100 µM,–,–,–,> 100 µM,–,> 100 µM
Nc1n[n+](-c2ccccc2)no1,–,> 100 µM,–,> 100 µM,–,> 100 µM,–,> 100 µM,–,–,–,> 100 µM,–,> 100 µM,–,–,–,> 100 µM,–,–
COc1ccc2oc(C(=O)O)c3c2c1CCC3CCC(=O)O (stereo unspecified),–,> 100 µM,–,> 100 µM,–,> 100 µM,–,> 100 µM,–,–,–,> 100 µM,–,> 100 µM,–,–,–,> 100 µM,–,> 100 µM
C/C=C(\CCOS(=O)(=O)c1ccc(C)cc1)[Si](C)(C)C,–,> 100 µM,–,> 100 µM,–,> 100 µM,–,> 100 µM,–,–,–,> 100 µM,–,> 100 µM,–,–,–,> 100 µM,–,> 100 µM
Cc1cccc2c1CCC21OC(=O)c2c1ccc1ccccc21 (stereo unspecified),–,> 100 µM,–,> 100 µM,–,> 100 µM,–,> 100 µM,–,–,–,98.7 µM,–,> 100 µM,–,–,–,> 100 µM,–,62.3 µM
CCOC(=O)c1cnc2c(ccc3ncccc32)c1NCCCN(CC)CC,–,> 100 µM,–,> 100 µM,–,> 100 µM,–,–,–,–,–,> 100 µM,–,> 100 µM,–,–,–,> 100 µM,–,> 100 µM
CC(=O)[CH-]C(=O)c1ccccc1.CC(=O)[CH-]C(=O)c1ccccc1.Cc1cc([O-])ccc1Cl.Cc1cc([O-])ccc1Cl.[Ti+4],27.7 µM,> 100 µM,19.6 µM,38.1 µM,5.92 µM,28.1 µM,35 µM,> 100 µM,–,–,35.6 µM,> 100 µM,15.6 µM,34.7 µM,–,–,19.5 µM,74.8 µM,19.3 µM,47 µM
O=C1C2CCN(CC2)C1(CO)CO,–,44 µM,–,43 µM,–,–,–,30.9 µM,–,> 100 µM,–,61.9 µM,–,33.2 µM,–,> 100 µM,–,> 100 µM,–,> 100 µM
CC1=C(O)/C(=C/C(C)CCC/C(C)=C/C=C/C(C)CCCc2ccoc2)OC1=O (stereo unspecified),–,84.9 µM,–,> 100 µM,–,63 µM,–,–,–,–,–,59.3 µM,–,> 100 µM,–,–,–,97.9 µM,–,57.9 µM
COc1ccc2c3c(c(C(=O)c4ccccc4)oc13)CCC2,–,> 100 µM,–,> 100 µM,–,> 100 µM,–,> 100 µM,–,–,–,41.4 µM,–,–,–,–,–,–,–,–
CC1(C)NCCC[C@]2(C)[C@H]3CC[C@@H]4[C@H]5[C@H](C(=O)/C=C/c6ccccn6)CC[C@]5(CO)CC[C@@]4(C)[C@]3(C)CC[C@@H]12,2.43 µM,6.26 µM,2.07 µM,4.28 µM,–,–,1.72 µM,3.15 µM,2.11 µM,4.9 µM,3.33 µM,14 µM,1.81 µM,4.45 µM,2.55 µM,11.8 µM,11.2 µM,31.2 µM,2.49 µM,6.91 µM
CCOC(=O)C(CC/C=C\c1ccccc1)N1CCC[C@H]1C(=O)OC (stereo partly specified),–,> 100 µM,–,> 100 µM,–,> 100 µM,–,> 100 µM,–,–,–,> 100 µM,–,> 100 µM,–,–,–,> 100 µM,–,> 100 µM
CN(C)CCNc1c2ccccc2nc2oc3ccccc3c12,5.39 µM,29.2 µM,2.43 µM,10.3 µM,8.49 µM,22.3 µM,4.16 µM,23.7 µM,6.9 µM,23 µM,–,–,4.6 µM,18.3 µM,3.4 µM,19.5 µM,5.81 µM,27.7 µM,12.2 µM,31.4 µM
N#CC1(C#N)C2C=CC(c3coc4cccc2c34)C1(C#N)C#N (stereo unspecified),–,34.8 µM,–,4.4 µM,–,30 µM,–,6.08 µM,–,–,–,36.9 µM,–,3.4 µM,–,–,–,20.3 µM,–,92.6 µM
CC(=O)O[C@@]1(C)[C@@H](C)C(=O)O[C@@H]2CCN3CC=C(COC(=O)[C@]1(C)O)[C@H]23,–,> 100 µM,–,> 100 µM,–,> 100 µM,–,> 100 µM,–,–,–,> 100 µM,–,> 100 µM,–,–,–,> 100 µM,–,> 100 µM
Cc1cccc(C(C)(C)C)c1NC(=O)CCc1nc(=S)[nH][nH]1,–,> 100 µM,–,> 100 µM,–,> 100 µM,–,> 100 µM,–,–,–,> 100 µM,–,> 100 µM,–,–,–,> 100 µM,–,> 100 µM
Cn1c(N)nc(=O)c2c1N(C1OC(CO)C(O)C1O)CN2Cc1ccccc1 (stereo unspecified),–,> 100 µM,–,> 100 µM,–,> 100 µM,–,> 100 µM,–,–,–,> 100 µM,–,> 100 µM,–,–,–,> 100 µM,–,> 100 µM
Nc1ccc(-c2cccs2)cc1NC(=O)c1ccc(CCCC(=O)Nc2ccc(C3CC3N)cc2)cc1 (stereo unspecified),1.61 µM,3.37 µM,2.44 µM,> 100 µM,–,–,–,–,1.74 µM,4 µM,–,–,–,–,–,–,2.33 µM,5.47 µM,7.28 µM,> 100 µM
CCCN(CCC)c1ccc(/C=N/NC(=O)c2cccnc2)c(OC)c1,32.7 µM,> 100 µM,20.1 µM,46.3 µM,26.6 µM,98.4 µM,22.7 µM,> 100 µM,10.3 µM,43 µM,26.1 µM,> 100 µM,20.3 µM,56.9 µM,25.2 µM,> 100 µM,26 µM,88.7 µM,–,–
CSc1snc2sc3c(Cl)nnnc3c12,–,29.7 µM,–,24 µM,–,21.2 µM,–,30.9 µM,–,–,–,36 µM,–,–,–,–,–,33.2 µM,–,27.7 µM
O=C(O/N=C1/CCC/C1=C\c1ccccc1)c1ccc(Cl)c(Cl)c1,–,> 100 µM,–,> 100 µM,–,> 100 µM,–,> 100 µM,–,–,–,> 100 µM,–,> 100 µM,–,–,–,> 100 µM,–,> 100 µM
Cc1cn2c(/C=N/N=C(N)N)c(-c3ccccn3)nc2s1,6.56 µM,17.9 µM,11.3 µM,42 µM,–,–,6.29 µM,25.8 µM,19 µM,41.6 µM,6.65 µM,16.7 µM,14.2 µM,53.3 µM,15.6 µM,53.9 µM,8.62 µM,45.4 µM,14 µM,48.1 µM
O=C(CC(=O)c1cccc2ccccc12)C(=O)NC1C2CC3CC(C2)CC1C3 (stereo unspecified),–,> 100 µM,–,> 100 µM,–,> 100 µM,–,> 100 µM,–,–,–,> 100 µM,–,> 100 µM,–,–,–,> 100 µM,–,–
